From US10487091B2, “Activators of autophagic flux and phospholipase D and clearance of protein aggregates including tau and treatment of proteinopathies” (THE TRUSTEES OF COLUMBIA UNIVERSITY IN THE CITY OF NEW YORK, priority 2015, dated 2019) come the findings set out here.

The structures appear in SMILES notation. Read-outs that look alike come from different tables or passages of the source.

Series [1] is described as follows: Cytotoxicity LC50 (XTT assay for cell viability).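 Further: cells carry doxycycline-repressible Tau, induced by withdrawing doxycycline for 72 h before compound exposure.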 Type of series: cell-based. As to conditions: human, transfected HEK 293 cells that express mKate2-tagged Tau. For orientation: Tetrazolium assays rely on reduction of a dye to a coloured formazan, in cell work by metabolically active cells.
Protocol: The cells were grown in the presence of the antibiotic doxycycline. When the antibiotic is removed the cells produce Tau (which can be quantified), thus allowing the test compounds' effects on Tau's production to be compared. Doxycycline was removed for 72 hours prior to exposure to the test compounds to promote sufficient Tau production. Cells were subsequently plated into plates for each of the assays described below.
The test system of another series is aggregates (Proteostat). In words: Proteostat protein aggregation assay EC50. In kind it is cell-based. The note with it: Homo sapiens; 50% reduction of Proteostat levels (fluorescent marker of aggregates). The text has this:
(§1) Proteostat™ assay was used to detect aggresomes via measurement of p62. Aggresomes are inclusion bodies that form when the ubiquitin-proteasome machinery is overwhelmed with aggregation-prone proteins. Typically, an aggresome forms in response to some cellular stress, such as hyperthermia, viral infection, or exposure to reactive oxygen species. Aggresomes may provide a cytoprotective function by sequestering the toxic, aggregated proteins and may also facilitate their ultimate elimination from cells by autophagy. Following the final plate read described in the Cyto-ID™ assay described above, Proteostat™ detection reagent was added to every well and the plate was incubated for 15 minutes. Following this incubation, the plate was read by fluorescence plate reader at the specified wavelength. After this plate read, the cells were fixed by incubating with warm paraformaldehyde for 8 minutes. The fixed cells were then read by plate reader as before.
8) Detection solution was prepared by adding 10 μl Proteostat™ detection reagent (ENZ-51023-KP002) and 200 μL of 10× assay buffer into 1790 μL water and mixing well.
9) 20 μL was added per well (each well had 80 μl of Fluorobrite™ media with no FBS) and incubated in the dark for 15 min at room temperature.
10) Fluorescence for Proteostat™ (Ex=550 nm; Em=600 nm) was then read.

In another series the test system is mKate2 tagged Tau. The series can be described thus: Tau-mKate2 fluorescence EC50. In kind it is cell-based. The note with it: Homo sapiens; 50% reduction of mKate2 fluorescence (tau tag). As for the experimental part:
(§2) 1) HEK cells with tet-regulated expression of mKate2 tagged Tau were grown in DMEM medium (Dulbecco's Modified Eagle's Medium) containing 0.5 μg/mL doxycycline (Dox)(MP-Bio#198955), after 3-5 days Dox was removed by washing the cells twice with sterile phosphate buffered saline (PBS; Invitrogen#14190-144), cells were left in DMEM without Dox for 72 hours (to further clear remaining Dox in cells).
The test compounds (along with CytoID™ dye and Hoechst stain) were added to the cells and incubated for 3 hours. Reference compounds were also used in each plate, Rapamycin was used for autophagy induction and chloroquine was used for lysosomal inhibition. […] Cells were then washed and read using a fluorescence plate reader. Hoescht, Cyto-ID™ and mKate2 were measured using 3 distinct wavelengths on the plate reader. […] After reading, test compound was re-added and the cells are left for a further 21 hours. At the 24 hour time point cells were once again washed and plates read using the fluorescence plate reader.
5) Treatment plate was then washed quickly 3 times with warm FB-DMEM (100 μL/well). […] At this point, the plate was ready for reading. See details in Reading Plate section. Hoescht was read at Excitation wavelength (Ex)=355 nm & Emission wavelength (Em)=446 nm. mKate2 was read at Ex=575 nm & Em=630 nm. Cyto-ID™ was read at Ex=463 nm & Em=534 nm. […]

The target in a further series is T1, PLD1 (Homo sapiens, UniProt Q13393).
T1 construct: endogenous in cells; host or cells: HEK 293 (Jump-In) cells with tet-regulated mKate2-Tau
T1 sequence (Q13393 1-1074): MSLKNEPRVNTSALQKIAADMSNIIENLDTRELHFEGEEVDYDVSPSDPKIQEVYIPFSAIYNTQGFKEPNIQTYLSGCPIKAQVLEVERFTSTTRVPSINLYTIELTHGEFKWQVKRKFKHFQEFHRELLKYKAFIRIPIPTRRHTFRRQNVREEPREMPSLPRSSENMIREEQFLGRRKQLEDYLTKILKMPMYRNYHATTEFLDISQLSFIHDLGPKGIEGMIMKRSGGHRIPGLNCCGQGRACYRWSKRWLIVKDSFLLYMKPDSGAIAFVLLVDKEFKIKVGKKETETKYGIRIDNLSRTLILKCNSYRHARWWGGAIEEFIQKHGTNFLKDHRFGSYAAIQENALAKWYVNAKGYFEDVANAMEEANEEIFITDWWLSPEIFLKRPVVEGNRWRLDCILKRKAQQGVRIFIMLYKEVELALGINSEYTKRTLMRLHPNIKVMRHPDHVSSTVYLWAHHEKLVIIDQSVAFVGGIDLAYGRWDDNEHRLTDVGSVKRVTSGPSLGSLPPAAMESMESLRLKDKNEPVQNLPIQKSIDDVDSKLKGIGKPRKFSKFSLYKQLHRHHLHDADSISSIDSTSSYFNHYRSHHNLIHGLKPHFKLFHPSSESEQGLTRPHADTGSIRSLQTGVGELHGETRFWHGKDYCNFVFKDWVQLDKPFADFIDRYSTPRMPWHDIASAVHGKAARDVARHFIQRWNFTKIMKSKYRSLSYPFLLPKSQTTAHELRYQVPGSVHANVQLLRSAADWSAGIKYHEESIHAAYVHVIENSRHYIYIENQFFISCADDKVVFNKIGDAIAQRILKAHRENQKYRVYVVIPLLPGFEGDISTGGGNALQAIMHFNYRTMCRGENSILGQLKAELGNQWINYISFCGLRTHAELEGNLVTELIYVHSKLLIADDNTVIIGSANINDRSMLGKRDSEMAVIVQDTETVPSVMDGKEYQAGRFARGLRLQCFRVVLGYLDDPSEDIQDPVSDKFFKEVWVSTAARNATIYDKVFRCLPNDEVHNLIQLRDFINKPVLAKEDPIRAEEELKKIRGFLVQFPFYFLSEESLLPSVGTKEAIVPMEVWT
In words: PLD1 activity: Proteostat/mKate2 with PLD2 inhibitor ML298. In kind it is cell-based. The note with it: with ML298, PLD2 inhibitor (355 nM). Here is the method: (§3) The assay was run in e18 primary cortical neurons from PLD1 or PLD2 KO mice cultured for 14 days. Alternatively, the assay can be run in the cells described above in the presence of excess PLD1 or PLD2 inhibitor to preclude that particular action from contributing to the effect of the drug.
(§4) 4) On the day of experiment, cells were washed in warmed HBSS twice before media containing test compound (n=3 per compound per dose), inhibitor (355 nM ML298 or 50 nM VU0150669), or vehicle are added to the wells (1.5 mL in 6 well, 600 μL in 12 well). Plates were incubated for 24 hours at 37° C. with 5% CO2.

For a further series, the target named is T2, PLD2 (Homo sapiens, UniProt O14939).
T2 construct: endogenous in cells; host or cells: HEK 293 (Jump-In) cells with tet-regulated mKate2-Tau
In words: PLD2 activity: Proteostat/mKate2 with PLD1 inhibitor VU0150669. Type of series: cell-based. As to conditions: for EC50: with PLD1 inhibitor VU0150669, 50 nM. Here is the method:
as §3, §4

The test system of another series is Tau/aggregate. The series can be described thus: Tau/aggregate inhibition in HEK 293 cells expressing mKate2-tagged Tau. The note with it: Homo sapiens, HEK293. Type of series: cell-based, Human. As for the experimental part: as §2
(§5) The test compounds (along with CytoID™ dye and Hoechst stain) were added to the cells and incubated for 3 hours. Reference compounds were also used in each plate, Rapamycin was used for autophagy induction and chloroquine was used for lysosomal inhibition. After 3 hours test compound was aspirated off and kept. Cells were then washed and read using a fluorescence plate reader. Hoescht, Cyto-ID™ and mKate2 were measured using 3 distinct wavelengths on the plate reader. The Hoescht measurement allowed normalisation of results across wells. After reading, test compound was re-added and the cells are left for a further 21 hours. At the 24 hour time point cells were once again washed and plates read using the fluorescence plate reader.
as §1
Western blot assays were performed to determine protein changes in Tau and p62. Cells were cultured as above and incubated with test compounds for 24 h. Following test compound incubation, the test compound was aspirated off and cells were washed before harvesting. Cells were spun at a low speed and supernatant was aspirated to leave the cell pellet. The cell pellet was then homogenized in buffer, centrifuged at high speed, and the supernatant aspirated and further separated into total fraction and aggregate fraction allowing quantification of soluble and insoluble proteins. Western blots were run on the samples, gels transferred to nitrocellulose and incubated with antibodies for Tau and p62. After incubation with secondary antibodies for detection, the bands of protein were quantified by chemiluminescence.

A further series has as its system Autophagy Markers. The series can be described thus: Autophagy markers (Cyto-ID assay) in HEK 293 cells. In kind it is cell-based, Human. As for the experimental part:
The dye used in the kit prevents its accumulation within lysosomes, but enables labelling of vacuoles associated with the autophagy pathway using the LC3 biomarker.
as §5
2) Test samples were prepared in warm FluoroBrite™ DMEM and with 10% FBS and 1% NEAA (FB-DMEM). Rapamycin 200 nM (Enzo #BML-A275-0025) was used for autophagy induction and […] chloroquine was used for lysosomal inhibition (bafilomycin or similar compounds were not used as they give a false negative result in the assay). Dimethyl Sulfoxide 1:1000 (DMSO; Fisher #BP231-100) was used as control. Autophagosome marker Cyto ID™ (1:500; Enzo #ENZ-51031-k200) and Hoechst (1:200) was added to these test sample preparations before treating the cells.
7) At 24 hours post reaction all medium was aspirated and the plate was washed 3 times with warm FB-DMEM, and read again for Hoescht (Ex=355 nm Em=446 nm), CytoID™ (Ex=463 nm; Em=534 nm) and mKate2 (Ex=575 nm; Em=630 nm) in 80 μl of FB-DMEM.

The test system of another series is phospholipase D (PLD). The series can be described thus: PLD assay (conversion of phospholipids to phosphatidylethanols in presence of ethanol, LC/MS). As to conditions: PLD activation, fold; 24 hours incubation. In kind it is cell-based, mice. Here is the method: Cells were incubated with test compound for 24 hours. 25 minutes prior to harvest at 24 hours, 3% ethanol solution was added to the wells to catalyze cleavage of the phospholipid. Cells were then placed on ice, washed and harvested. The harvested cells were centrifuged and the supernatant was aspirated and the pellet kept. The pellet was resuspended and chloroform/methanol lipid extraction was performed. The sample was centrifuged and the organic layer was separated, dried under nitrogen and stored at −80° C. On the day of analysis, samples were resuspended and analysed by LC/MS. All phosphatidylethanol species (PEtOH32-40:0-6:16/18:0/1) were combined together and represented as total lipid content (all lipid species).
as §3, §4
5) 25 minutes prior to harvest, a 165 μL of a 3% ethanol solution was added to each well.
PLD activation converts phospholipids to phosphatidylethanols in the presence of ethanol. […] FIPI is a non-competitive inhibitor of PLD activity and was used as a negative control.

A short description of series [2]: Photodiode array (PDA) detection of compound in mouse brain. As to conditions: FIG. 1. Type of series: in vivo. The text has this: FIG. 1 is a graph showing a photodiode array (PDA) spectrum of WHYKD8 in mouse brain.
A photodiode array (PDA) was used to detect WHYKD8 in mouse brain (FIG. 1).

T2 sequence (O14939 whole entry): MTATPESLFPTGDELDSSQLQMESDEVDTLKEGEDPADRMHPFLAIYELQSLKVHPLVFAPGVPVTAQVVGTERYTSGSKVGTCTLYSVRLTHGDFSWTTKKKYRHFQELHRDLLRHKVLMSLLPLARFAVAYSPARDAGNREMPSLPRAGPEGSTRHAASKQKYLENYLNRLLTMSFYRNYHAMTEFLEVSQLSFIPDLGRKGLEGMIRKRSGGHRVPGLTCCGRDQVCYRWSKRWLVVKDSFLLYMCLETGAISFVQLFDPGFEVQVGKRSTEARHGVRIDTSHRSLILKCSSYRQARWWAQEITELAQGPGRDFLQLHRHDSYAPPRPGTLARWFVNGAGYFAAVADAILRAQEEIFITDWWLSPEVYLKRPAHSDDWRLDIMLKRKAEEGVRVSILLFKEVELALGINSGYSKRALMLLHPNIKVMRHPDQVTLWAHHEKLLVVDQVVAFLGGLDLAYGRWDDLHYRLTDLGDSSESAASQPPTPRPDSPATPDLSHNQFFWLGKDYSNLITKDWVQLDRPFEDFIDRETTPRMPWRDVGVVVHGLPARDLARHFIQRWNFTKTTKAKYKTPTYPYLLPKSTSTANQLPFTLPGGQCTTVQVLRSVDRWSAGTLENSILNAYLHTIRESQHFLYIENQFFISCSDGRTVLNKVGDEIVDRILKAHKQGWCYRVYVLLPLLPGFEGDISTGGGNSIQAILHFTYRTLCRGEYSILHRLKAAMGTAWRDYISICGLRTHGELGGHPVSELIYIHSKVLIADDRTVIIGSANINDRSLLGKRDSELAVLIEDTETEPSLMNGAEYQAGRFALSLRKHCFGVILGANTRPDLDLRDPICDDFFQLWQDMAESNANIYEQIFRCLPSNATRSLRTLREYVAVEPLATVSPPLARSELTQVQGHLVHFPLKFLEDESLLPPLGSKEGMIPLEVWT

In the case of `c1cnc2c(SC3CCCC3)ncnc2c1` [WHYKD36], in [1] (XTT assay, 200 = upper concentration limit tested, read-out: LC50 (the source's name)), the CC50 turned out to be 67000 nM. The EC50 in the series with aggregates (Proteostat) was 383 nM; in the series on mKate2 tagged Tau, 1040 nM; on PLD1 (read-out: Proteostat (nM) using pharmacological inhibitor PLD1), 394 nM; at PLD1 (read-out: mKate2 (nM) using pharmacological inhibitor PLD1), 1330 nM; on PLD2 (read-out: Proteostat (nM) using pharmacological inhibitor PLD2), 604 nM; at PLD2 (read-out: mKate2 (nM) using pharmacological inhibitor PLD2) it was 2280 nM. For the same compound, the “Proteostat PLD2/PLD1 ratio” value on PLD2 (Proteostat readout) came out at 1.5. Moreover, on PLD2 (mKate2 readout), the “mKate2 PLD2/PLD1 ratio” value amounted to 1.7.
Turning to `Oc1ccc(CCNc2ncnc3ccc(Cl)cc23)cc1` [WHYKD8], the inhibition (as a rule, the drop in the measured response relative to a control, in per cent) at 1 µM in the series with Tau/aggregate was determined as 30%. Also, the “% Increase Autophagy Markers” value with Autophagy Markers worked out at 25%. For the same compound, the PLD with phospholipase D (PLD) turned out to be 2.8X. Besides, the CC50 in series [1] (read-out: Cyto-toxixity LC50) was over 100000 nM. For the same compound, in [2], the “detection in mouse brain” value is listed as “readily detected”.
